Columns and labels:
WT TALK-2 channels = target: T1, WT TALK-2 channels (Homo sapiens, UniProt Q96T54); assay: Conductance-voltage (G-V) curves from tail currents, V1/2 (intracellular Rb+); type: cell-based; design: expressed in transfected cells; host or cells: Xenopus laevis oocytes (cRNA injection), excised inside-out patches; conditions: for Normalized current: TALK-2 WT + 5 µM Oleoyl-CoA
T1 sequence (Q96T54 1-332): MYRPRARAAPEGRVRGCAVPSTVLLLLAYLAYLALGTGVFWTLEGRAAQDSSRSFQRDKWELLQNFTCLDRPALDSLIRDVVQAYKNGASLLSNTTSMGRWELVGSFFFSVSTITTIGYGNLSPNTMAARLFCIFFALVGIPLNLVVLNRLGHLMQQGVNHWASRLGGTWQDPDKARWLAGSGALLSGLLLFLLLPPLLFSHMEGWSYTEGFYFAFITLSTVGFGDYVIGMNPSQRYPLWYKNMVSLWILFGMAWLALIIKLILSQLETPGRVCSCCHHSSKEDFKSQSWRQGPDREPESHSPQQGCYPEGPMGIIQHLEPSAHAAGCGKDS
Excerpt: The voltage-dependent activation mechanism of the SF gate in K2P channels allows to estimate the electrical work (ΔG = zFΔV1/2) required for pore opening by fitting the G–V curve to a Boltzmann equation. […] The open state represents the situation of both gates being simultaneously open but voltage can only exert force on the SF gate that functions as voltage sensor. […] We further tested whether mutations that open the lower gate (L262A and L264A) would affect the extracellular pH sensitivity. […] We further explored this concept of allosteric coupling using the mutations identified in the functional alanine screen of TM2 and TM4. […]
Conductance-voltage (G–V) relationships were determined from tail currents recorded at a holding potential (VH) of −80 mV after 300 ms depolarizing steps as indicated in the respective figure legend. Data were analyzed with a single Boltzmann fit following Eq. 6:6 GV=Imax/1+e^V−V1/2/slope+Ibase where V1/2 represents the voltage of half-maximal activation, s is the slope factor and Imax and Ibase represent the upper and lower asymptotes. Under appropriate experimental conditions, you can use slope to calculate the valence (charge) of the ion moving across the channel. Slope equals R * T/ z * F where R is the universal gas constant, T is temperature in K, F is the Faraday constant, and z is the valence.

[1] = target: T2, WT TALK-2 channels (human K2P17.1) (Homo sapiens, UniProt Q96T54); assay: Inside-out patch-clamp, ligand activation of channel currents at +40 mV (oocytes); conditions: 5 µM; TALK-2 WT
T2 sequence (Q96T54 1-332): T1 sequence (Q96T54 1-332)
Protocol: Oocytes were surgically removed from anesthetized adult females, treated with type II collagenase (Sigma-Aldrich/Merck, Germany) and manually defolliculated. 50 nl of a solution containing the K^+ channel specific cRNA was injected into Dumont stage V - VI oocytes and subsequently incubated at 17 °C in a solution containing (mM): 54 NaCl, 30 KCl, 2.4 NaHCO3, 0.82 MgSO4 x 7 H2O, 0.41 CaCl2, 0.33 Ca(NO3)2 x 4 H2O and 7.5 TRIS (pH 7.4 adjusted with NaOH/HCl) for 1–7 days before use. Electrophysiological recordings: Excised patch measurements in inside-out configuration under voltage-clamp conditions were performed at room temperature (22 – 24 °C). […] Intracellular bath solutions and compounds were applied to the cytoplasmic side of excised patches for the various K^+ channels via a gravity flow multi-barrel pipette system. Intracellular solution had the following composition (in mM): 120 KCl, 10 HEPES, 2 EGTA and 1 Pyrophosphate (pH adjusted with KOH/HCl). In other intracellular bath solutions, K^+ was replaced by Rb^+ (pH 7.4 adjusted with RbOH/HCl). Currents were recorded with an EPC10 amplifier (HEKA electronics, Germany) and sampled at 10 kHz or higher and filtered with 3 kHz (-3 dB) or higher as appropriate for sampling rate.
Recorded currents were analyzed from stable membrane patches at a voltage defined in the respective figure legend or with a voltage protocol as indicated in the respective figure. The fold activation (fold change in (tail) current amplitude) of a ligand (drug or bioactive lipid) was calculated from Eq. 1:1 Fold activationFA=Iactivated/Ibasal where Iactivated represents the stable current level in the presence of a given concentration of a respective ligand and Ibasal the measured current before ligand application. Percentage inhibition or residual currents upon blocker application for a ligand (drug or bioactive lipid) was calculated from stable currents of excised membrane patches using the following Eqs. 2 and 3:2 %inhibition=1−Iinhibited/Ibasal*100 3 Residual current=100−%inhibition where Iinhibited refers to the stable current level recorded in the presence of a given concentration of a drug or bioactive lipid and Ibasal to the measured current before ligand application. The macroscopic half-maximal concentration-inhibition relationship of a ligand was obtained using a Hill-fit for dose-response curves as depicted in Eq. 4:4 %inhibition/activation=Ibase+Imax−Ibase/1+x1/2/x^rate where base and max are the currents in the absence and presence of a respective ligand, x is the concentration of the ligand, x1/2 is the ligand concentration at which the activatory or inhibitory effect is half-maximal, rate is the Hill coefficient.

With `CCCCCCCC/C=C\CCCCCCCC(=O)SCCNC(=O)CCNC(=O)[C@H](O)C(C)(C)COP(=O)(O)OP(=O)(O)OC[C@H]1O[C@@H](n2cnc3c(N)ncnc32)[C@H](O)[C@@H]1OP(=O)(O)O` [oleoyl-CoA] as the compound, how does the “V1/2 shift (mV)” value (WT TALK-2 channels; 5 µM Oleoyl-CoA, shift of G-V curve) read?
Its value is 26.7 mV.

And the Normalized current (WT TALK-2 channels; Voltage 0.000)?
The Normalized current was 0.186.

And the Normalized current (WT TALK-2 channels; Voltage 0.005)?
The Normalized current was 0.210.

And the Normalized current (WT TALK-2 channels; Voltage 0.010)?
Its Normalized current is 0.238.

What about the Normalized current (WT TALK-2 channels; Voltage 0.015) of the same compound?
Its Normalized current is 0.274.

What about the Normalized current (WT TALK-2 channels; Voltage 0.020) of the same compound?
Its Normalized current is 0.318.

And the Normalized current (WT TALK-2 channels; Voltage 0.025)?
The Normalized current was 0.366.

What about the Normalized current (WT TALK-2 channels; Voltage 0.030) of the same compound?
Its Normalized current is 0.416.

What about the Normalized current (WT TALK-2 channels; Voltage 0.035) of the same compound?
Its Normalized current is 0.467.

And the Normalized current (WT TALK-2 channels; Voltage 0.040)?
Its Normalized current is 0.514.

And the Normalized current (WT TALK-2 channels; Voltage 0.045)?
Its Normalized current is 0.557.

And the Normalized current (WT TALK-2 channels; Voltage 0.050)?
The Normalized current was 0.597.

What about the Normalized current (WT TALK-2 channels; Voltage 0.055) of the same compound?
The Normalized current was 0.633.

What about the Normalized current (WT TALK-2 channels; Voltage 0.060) of the same compound?
The Normalized current was 0.668.

And the Normalized current (WT TALK-2 channels; Voltage 0.065)?
The Normalized current was 0.699.

What about the Normalized current (WT TALK-2 channels; Voltage 0.070) of the same compound?
The Normalized current was 0.727.

And the Normalized current (WT TALK-2 channels; Voltage 0.075)?
Its Normalized current is 0.755.

What about the Normalized current (WT TALK-2 channels; Voltage 0.080) of the same compound?
The Normalized current was 0.778.

And the Normalized current (WT TALK-2 channels; Voltage 0.085)?
Its Normalized current is 0.804.

What about the Normalized current (WT TALK-2 channels; Voltage 0.090) of the same compound?
Its Normalized current is 0.822.

And the Normalized current (WT TALK-2 channels; Voltage 0.095)?
Its Normalized current is 0.844.

What about the Normalized current (WT TALK-2 channels; Voltage 0.100) of the same compound?
The Normalized current was 0.861.

What about the Normalized current (WT TALK-2 channels; Voltage 0.105) of the same compound?
Its Normalized current is 0.882.

And the Normalized current (WT TALK-2 channels; Voltage 0.110)?
The Normalized current was 0.895.

And the Normalized current (WT TALK-2 channels; Voltage 0.115)?
Its Normalized current is 0.911.

And the Normalized current (WT TALK-2 channels; Voltage 0.120)?
Its Normalized current is 0.926.

What about the Normalized current (WT TALK-2 channels; Voltage 0.125) of the same compound?
Its Normalized current is 0.934.

And the Normalized current (WT TALK-2 channels; Voltage 0.130)?
Its Normalized current is 0.943.

And the Normalized current (WT TALK-2 channels; Voltage 0.135)?
Its Normalized current is 0.956.

And the Normalized current (WT TALK-2 channels; Voltage 0.140)?
Its Normalized current is 0.963.

What about the Normalized current (WT TALK-2 channels; Voltage 0.145) of the same compound?
Its Normalized current is 0.968.

What about the Normalized current (WT TALK-2 channels; Voltage 0.150) of the same compound?
Its Normalized current is 0.977.

What about the Normalized current (WT TALK-2 channels; Voltage 0.155) of the same compound?
Its Normalized current is 0.979.

And the Normalized current (WT TALK-2 channels; Voltage 0.160)?
The Normalized current was 0.985.

And the Normalized current (WT TALK-2 channels; Voltage -0.005)?
The Normalized current was 0.170.

And the Normalized current (WT TALK-2 channels; Voltage -0.010)?
The Normalized current was 0.157.

What about the Normalized current (WT TALK-2 channels; Voltage -0.015) of the same compound?
The Normalized current was 0.148.

And the Normalized current (WT TALK-2 channels; Voltage -0.020)?
Its Normalized current is 0.137.

And the Normalized current (WT TALK-2 channels; Voltage -0.025)?
Its Normalized current is 0.129.

What about the Normalized current (WT TALK-2 channels; Voltage -0.030) of the same compound?
Its Normalized current is 0.123.

What about the Normalized current (WT TALK-2 channels; Voltage -0.035) of the same compound?
The Normalized current was 0.120.

And the Normalized current (WT TALK-2 channels; Voltage -0.040)?
Its Normalized current is 0.115.

What about the Normalized current (WT TALK-2 channels; Voltage -0.045) of the same compound?
The Normalized current was 0.109.

And the Normalized current (WT TALK-2 channels; Voltage -0.050)?
Its Normalized current is 0.104.

And the Normalized current (WT TALK-2 channels; Voltage -0.055)?
Its Normalized current is 0.102.

And the Normalized current (WT TALK-2 channels; Voltage -0.060)?
Its Normalized current is 0.097.

What about the Normalized current (WT TALK-2 channels; Voltage -0.065) of the same compound?
The Normalized current was 0.093.

What about the Normalized current (WT TALK-2 channels; Voltage -0.070) of the same compound?
Its Normalized current is 0.092.

What about the Normalized current (WT TALK-2 channels; Voltage -0.075) of the same compound?
The Normalized current was 0.089.

What about the Normalized current (WT TALK-2 channels; Voltage -0.080) of the same compound?
The Normalized current was 0.088.

What about the Normalized current (WT TALK-2 channels; Voltage -0.085) of the same compound?
The Normalized current was 0.088.

And the Normalized current (WT TALK-2 channels; Voltage -0.090)?
The Normalized current was 0.087.

And the Normalized current (WT TALK-2 channels; Voltage -0.095)?
Its Normalized current is 0.087.

What about the Normalized current (WT TALK-2 channels; Voltage -0.100) of the same compound?
The Normalized current was 0.087.

What about the Normalized current (WT TALK-2 channels; Voltage -0.105) of the same compound?
The Normalized current was 0.086.

What about the Normalized current (WT TALK-2 channels; Voltage -0.110) of the same compound?
Its Normalized current is 0.086.

And the Normalized current (WT TALK-2 channels; Voltage -0.115)?
Its Normalized current is 0.086.

What about the Normalized current (WT TALK-2 channels; Voltage -0.120) of the same compound?
The Normalized current was 0.086.

What about the V1/2 (WT TALK-2 channels; TALK-2 WT, 5 µM ligand) of the same compound?
The V1/2 was 44.9 mV.

What about the “Fold activation 5 µM oleoyl-CoA” value [1] of the same compound?
The value was 19.13 fold.

Reference: PMC11364775, “Ion occupancy of the selectivity filter controls opening of a cytoplasmic gate in the K2P channel TALK-2” (Nature Communications, 2024)
